# Measured values as given in paper PMC10263210, “Design, Synthesis and Biological Evaluation of Novel MDH Inhibitors Targeting Tumor Microenvironment” (Pharmaceuticals, 2023).
# Assays:
# A549 lung cancer cells = test: Cell growth inhibition assay (SRB), A549; assay type: cell-based; settings: Homo sapiens, means of three experiments, read-out: Cell Viability IC50 A549
# Procedure: (§1) At the same time, we investigated the effect of the compounds on the growth inhibition of A549 and H460 lung cancer cells bearing KRAS and LKB1 mutations. […] Compound 50 containing a piperidine linker was selected for further analysis.
# (§2) Human lung carcinoma A549 cells were cultured in Dulbecco’s modified Eagle’s medium and H460 cells were cultured in RPMI 1640 medium containing 10% fetal bovine serum and 1% penicillin/streptomycin at 37 °C with a 5% Co2 hypoxia experimental condition. The cells were grown in the hypoxia chamber (1% O2, 94% N2, and 5% Co2 in a multigas incubator)
# (§3) Cell growth inhibition was assessed using sulforhodamine B (SRB) as described in [34]. The cells were fixed with 10% formalin (Sigma-Aldrich) and stained with 0.4% SRB. Protein-bound dye was dissolved in 10 mM of Tris, and its optical density was measured at 540 nm.
# human recombinant MDH1 = molecular target: T1, human recombinant MDH1 (Homo sapiens, UniProt P40925); test: MDH1 enzyme activity assay (oxaloacetate-dependent NADH oxidation); assay type: biochemical; settings: means of three experiments
# T1 construct: purchased BioVision
# T1 sequence (P40925 1-334): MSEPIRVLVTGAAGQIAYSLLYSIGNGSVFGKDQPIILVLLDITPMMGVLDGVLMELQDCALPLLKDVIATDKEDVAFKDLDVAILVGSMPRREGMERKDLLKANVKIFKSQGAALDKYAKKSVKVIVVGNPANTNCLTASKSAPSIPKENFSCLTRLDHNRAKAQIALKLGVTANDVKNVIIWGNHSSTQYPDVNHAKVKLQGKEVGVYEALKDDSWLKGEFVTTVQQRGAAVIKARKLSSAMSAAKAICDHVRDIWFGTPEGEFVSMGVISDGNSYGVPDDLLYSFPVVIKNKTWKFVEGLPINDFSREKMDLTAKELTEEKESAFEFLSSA
# Excerpt: (§4) To develop the dual inhibitors of MDH1 and MDH2, we screened the newly synthesized LW1497 derivatives using MDH and MDH2 enzyme assays. LW1497 was used as the positive control for the MDH1/2 dual inhibitor. We evaluated the ability of the synthesized compounds to inhibit human recombinant MDH1 and MDH2 enzymatic activity using an oxaloacetate-dependent NADH oxidation assay (Table 1, Table 2, Table 3, Table 4, Table 5 and Table 6). Our SAR optimization strategy focused on four different parts of LW1497: (A) the introduction of various groups at different positions on the amide phenyl ring; (B) the replacement of the 3-(4-(2,4,4-trimethylpentan-2-yl) alkyl chain; (C) the alteration of the amide portion; and (D) the modification of the oxypropanamide linker portion (Figure 1).
# (§5) The activities of MDH1 and MDH2 were confirmed using an oxaloacetate-dependent NADH oxidation assay. Experiments were conducted using 100 mM of potassium phosphate buffer (pH 7.4) and human recombinant MDH1 (BioVision) and MDH2 (BioVision), and the results were obtained by measuring the absorbance at 340 nm. Enzyme activity was measured using a plate reader at a wavelength of 340 nm.
# H460 lung cancer cells = test: Cell growth inhibition assay (SRB), H460; assay type: cell-based; settings: Homo sapiens, NCI-H460, means of three experiments, read-out: Cell Viability IC50 H460
# Procedure: as §1, §2, §3
# human recombinant MDH2 = molecular target: T2, human recombinant MDH2 (Homo sapiens, UniProt P40926); test: MDH2 enzyme activity assay (oxaloacetate-dependent NADH oxidation); assay type: biochemical; settings: means of three experiments
# T2 construct: purchased BioVision
# T2 sequence (P40926 25-338): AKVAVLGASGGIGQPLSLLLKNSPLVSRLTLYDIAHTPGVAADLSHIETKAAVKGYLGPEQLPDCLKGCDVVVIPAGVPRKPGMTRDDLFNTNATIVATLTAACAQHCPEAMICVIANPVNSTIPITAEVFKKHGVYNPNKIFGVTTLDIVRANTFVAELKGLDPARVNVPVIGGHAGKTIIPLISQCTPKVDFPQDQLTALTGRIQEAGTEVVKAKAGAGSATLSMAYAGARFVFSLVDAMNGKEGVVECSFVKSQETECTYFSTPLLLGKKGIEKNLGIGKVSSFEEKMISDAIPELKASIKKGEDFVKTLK
# Excerpt: as §4, §5
IC50 (A549 lung cancer cells),melting point,IC50 (human recombinant MDH1),IC50 (H460 lung cancer cells),IC50 (human recombinant MDH2),Structure (SMILES)
> 20 µM,82 to 85 °C,> 5 µM,> 20 µM,> 5 µM,"O=C(CCOc1ccc2ccccc2c1)Nc1cccc(OC(F)(F)F)c1 [Compound 39a, 3-(Naphthalen-2-yloxy)-N-(3-(trifluoromethoxy)phenyl)propanamide]"
14.2 ± 0.2 µM,113 to 115 °C,1.61 ± 0.25 µM,14.86 ± 0.07 µM,> 5 µM,O=C(CCOc1ccc2ccc(Br)cc2c1)Nc1cccc(OC(F)(F)F)c1 [Compound 39b]
17.7 ± 0.18 µM,128 to 130 °C,1.61 ± 0.21 µM,14.8 ± 0.18 µM,> 5 µM,"O=C(CCOc1ccc2cc(Br)ccc2c1)Nc1cccc(OC(F)(F)F)c1 [Compound 39c, 3-((6-Bromonaphthalen-2-yl)oxy)-N-(3-(trifluoromethoxy)phenyl)propanamide]"
> 20 µM,102 to 104 °C,2.25 ± 0.77 µM,–,18.3 ± 1.8 µM,"O=C(CCOc1ccc2cc(F)ccc2c1)Nc1cccc(OC(F)(F)F)c1 [Compound 39d, 3-((6-Fluoronaphthalen-2-yl)oxy)-N-(3-(trifluoromethoxy)phenyl)propanamide]"
13.2 ± 1.3 µM,65 to 67 °C,3.15 ± 0.11 µM,12.4 ± 0.21 µM,2.22 ± 0.28 µM,"CC(C)(C)CC(C)(C)c1ccc(OCCNC(=O)c2cccc(OC(F)(F)F)c2)cc1 [Compound 44a, 3-(Trifluoromethoxy)-N-(2-(4-(2,4,4-trimethylpentan-2-yl)phenoxy)ethyl)benzamide]"
7.32 ± 0.02 µM,–,–,7.61 ± 0.24 µM,> 5 µM,"CC(C)(C)CC(C)(C)c1ccc(OCCNS(=O)(=O)c2cccc(OC(F)(F)F)c2)cc1 [Compound 44b, 3-(Trifluoromethoxy)-N-(2-(4-(2,4,4-trimethylpentan-2-yl)phenoxy)ethyl)benzenesulfonamide]"
6.47 ± 0.06 µM,–,1.61 ± 0.02 µM,6.06 ± 0.06 µM,1.09 ± 0.06 µM,"CC(C)N(CCC(=O)Nc1cccc(OC(F)(F)F)c1)c1ccc(C(C)(C)CC(C)(C)C)cc1 [Compound 57b, 3-(Isopropyl(4-(2,4,4-trimethylpentan-2-yl)phenyl)amino)-N-(3-(trifluoromethoxy)phenyl)propanamide]"
7.24 ± 0.11 µM,–,2.16 ± 0.01 µM,7.11 ± 0.03 µM,1.18 ± 0.01 µM,"CC(C)(C)CC(C)(C)c1ccc(N(CCC(=O)Nc2cccc(OC(F)(F)F)c2)C2CCC2)cc1 [Compound 57c, 3-(Cyclobutyl(4-(2,4,4-trimethylpentan-2-yl)phenyl)amino)-N-(3-(trifluoromethoxy)phenyl)propanamide]"

# The next lines start with the compound.
Structure (SMILES),IC50 (A549 lung cancer cells),melting point,IC50 (human recombinant MDH1),IC50 (H460 lung cancer cells),IC50 (human recombinant MDH2)
"COc1cccc(NC(=O)CCOc2ccc(C(C)(C)CC(C)(C)C)cc2)c1 [Compound 5a, N-(3-Methoxyphenyl)-3-(4-(2,4,4-trimethylpentan-2-yl)phenoxy)propanamide]",11.1 ± 0.77 µM,97 to 99 °C,6.18 ± 0.74 µM,8.83 ± 0.34 µM,1.5 ± 0.01 µM
"CC(C)(C)CC(C)(C)c1ccc(OCCC(=O)Nc2cccc(C#N)c2)cc1 [Compound 5b, N-(3-Cyanophenyl)-3-(4-(2,4,4-trimethylpentan-2-yl)phenoxy)propanamide]",5.25 ± 0.21 µM,112 to 114 °C,6.96 ± 0.12 µM,5.84 ± 0.74 µM,2 ± 0.05 µM
"CC(C)(C)CC(C)(C)c1ccc(OCCC(=O)Nc2cccc(C(F)(F)F)c2)cc1 [Compound 5c, N-(3-(Trifluoromethyl)phenyl)-3-(4-(2,4,4-trimethylpentan-2-yl)phenoxy)propanamide]",6.47 ± 0.06 µM,88 to 90 °C,8.35 ± 2.86 µM,5.68 ± 0.23 µM,1.04 µM
"CC(C)(C)CC(C)(C)c1ccc(OCCC(=O)Nc2cccc(OC(F)(F)F)c2)cc1 [Compound 5d, N-(3-(Trifluoromethoxy)phenyl)-3-(4-(2,4,4-trimethylpentan-2-yl)phenoxy)propanamide]",6.42 ± 0.06 µM,–,0.94 ± 0.05 µM,6.81 ± 0.04 µM,1.24 ± 0.13 µM
"CC(C)(C)CC(C)(C)c1ccc(OCCC(=O)Nc2ccccc2OC(F)(F)F)cc1 [Compound 5e, N-(2-(Trifluoromethoxy)phenyl)-3-(4-(2,4,4-trimethylpentan-2-yl)phenoxy)propanamide]",> 10 µM,–,3.14 ± 0.14 µM,> 10 µM,3.09 ± 0.2 µM
"CC(C)(C)CC(C)(C)c1ccc(OCCC(=O)Nc2ccc(OC(F)(F)F)cc2)cc1 [Compound 5f, N-(4-(Trifluoromethoxy)phenyl)-3-(4-(2,4,4-trimethylpentan-2-yl)phenoxy)propanamide]",5.97 ± 0.71 µM,–,3.45 ± 0.07 µM,3.77 ± 0.02 µM,2.12 ± 0.21 µM
CC(C)(C)CCc1ccc(OCCC(=O)Nc2cccc(OC(F)(F)F)c2)cc1 [Compound 14],14.44 ± 0.1 µM,–,3.05 ± 0.29 µM,12.8 ± 1.36 µM,1.53 ± 0.08 µM
"CC(C)(C)CNc1ccc(OCCC(=O)Nc2cccc(OC(F)(F)F)c2)cc1 [Compound 21, 3-(4-(Neopentylamino)phenoxy)-N-(3-(trifluoromethoxy)phenyl)propanamide]",> 10 µM,–,> 5 µM,> 10 µM,> 5 µM
"CN(CC(C)(C)C)c1ccc(OCCC(=O)Nc2cccc(OC(F)(F)F)c2)cc1 [Compound 22, 3-(4-(Methyl(neopentyl)amino)phenoxy)-N-(3-(trifluoromethoxy)phenyl)propanamide]",> 10 µM,–,> 5 µM,> 10 µM,3.13 ± 0.29 µM
"CC(C)(O)CC(C)(C)c1ccc(OCCC(=O)Nc2cccc(OC(F)(F)F)c2)cc1 [Compound 30, 3-(4-(4-Hydroxy-2,4-dimethylpentan-2-yl)phenoxy)-N-(3-(trifluoromethoxy)phenyl)propanamide]",8.28 ± 0.76 µM,–,> 5 µM,–,> 5 µM
"O=C(CCOc1ccc(-c2ccccc2)cc1)Nc1cccc(OC(F)(F)F)c1 [Compound 35a, 3-([1,1′-Biphenyl]-4-yloxy)-N-(3-(trifluoromethoxy)phenyl)propanamide]",> 10 µM,132 to 134 °C,0.78 ± 0.08 µM,> 10 µM,1.38 ± 0.59 µM
"O=C(CCOc1ccc(-c2ccc(F)cc2)cc1)Nc1cccc(OC(F)(F)F)c1 [Compound 35b, 3-((4′-Fluoro-[1,1′-biphenyl]-4-yl)oxy)-N-(3-(trifluoromethoxy)phenyl)propanamide]",> 10 µM,101 to 103 °C,> 5 µM,> 10 µM,> 5 µM
"CC(C)(C)CC(C)(C)c1ccc(N2CCN(C(=O)c3cccc(OC(F)(F)F)c3)CC2)cc1 [Compound 51, (3-(Trifluoromethoxy)phenyl)(4-(4-(2,4,4-trimethylpentan-2-yl)phenyl)piperazin-1-yl)methanone]",> 20 µM,102 to 104 °C,5 ± 2.49 µM,18.4 ± 1.55 µM,> 5 µM
"CC(C)(C)CC(C)(C)c1ccc(NCCC(=O)Nc2cccc(OC(F)(F)F)c2)cc1 [Compound 56, N-(3-(Trifluoromethoxy)phenyl)-3-((4-(2,4,4-trimethylpentan-2-yl)phenyl)amino)propanamide]",6.06 ± 0.01 µM,–,1.79 ± 0.04 µM,5.3 ± 0.01 µM,3.18 ± 0.18 µM
